Data as given in ChEMBL document CHEMBL1671815, “A practical use of ligand efficiency indices out of the fragment-based approach: ligand efficiency-guided lead identification of soluble epoxide hydrolase inhibitors” (J Med Chem, 2011).
pIC50: −log10 of the molar value.

Legend:
[1] = test system: Liver microsomes; experiment: Intrinsic clearance in human liver microsome measured per mg of protein; format: ADME
[2] = test system: Liver microsomes; experiment: Intrinsic clearance in rat liver microsome measured per mg of protein; format: ADME
[3] = molecular target: Cytochrome P450 2C19 (Homo sapiens, UniProt P33261); experiment: Inhibition of CYP2C19; format: ADME
Chain of Cytochrome P450 2C19 (P33261 whole entry): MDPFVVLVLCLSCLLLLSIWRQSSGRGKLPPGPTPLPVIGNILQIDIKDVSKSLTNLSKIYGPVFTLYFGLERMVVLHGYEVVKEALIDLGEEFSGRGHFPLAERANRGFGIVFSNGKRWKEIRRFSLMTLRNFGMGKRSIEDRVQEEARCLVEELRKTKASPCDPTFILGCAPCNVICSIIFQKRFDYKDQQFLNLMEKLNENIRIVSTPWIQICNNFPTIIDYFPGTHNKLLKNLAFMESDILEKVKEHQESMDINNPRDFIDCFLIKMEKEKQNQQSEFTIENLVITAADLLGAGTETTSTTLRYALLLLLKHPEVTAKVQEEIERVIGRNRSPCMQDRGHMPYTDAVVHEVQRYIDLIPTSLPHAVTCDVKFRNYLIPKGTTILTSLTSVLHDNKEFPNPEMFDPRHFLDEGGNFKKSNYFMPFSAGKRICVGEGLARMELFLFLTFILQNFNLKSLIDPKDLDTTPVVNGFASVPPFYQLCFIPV

[4] = molecular target: T1, Bifunctional epoxide hydrolase 2 (Homo sapiens, UniProt P34913); experiment: Inhibition of human soluble epoxide hydrolase in cell free system
T1 sequence (P34913 whole entry): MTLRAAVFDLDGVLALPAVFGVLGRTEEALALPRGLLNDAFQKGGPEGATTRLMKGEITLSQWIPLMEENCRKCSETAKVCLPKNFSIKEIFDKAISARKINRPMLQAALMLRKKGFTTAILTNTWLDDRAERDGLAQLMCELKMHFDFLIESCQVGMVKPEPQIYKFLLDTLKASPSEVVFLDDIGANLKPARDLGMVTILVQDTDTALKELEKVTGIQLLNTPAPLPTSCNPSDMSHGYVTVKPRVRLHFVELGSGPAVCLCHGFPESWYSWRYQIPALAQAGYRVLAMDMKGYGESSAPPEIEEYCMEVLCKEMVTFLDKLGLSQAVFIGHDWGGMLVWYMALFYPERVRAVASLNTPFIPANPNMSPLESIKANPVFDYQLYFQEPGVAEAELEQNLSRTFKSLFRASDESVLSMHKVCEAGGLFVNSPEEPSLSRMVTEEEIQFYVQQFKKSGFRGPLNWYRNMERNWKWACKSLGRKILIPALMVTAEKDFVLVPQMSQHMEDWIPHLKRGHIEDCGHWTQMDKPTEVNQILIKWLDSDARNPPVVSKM

[5] = molecular target: T2, Bifunctional epoxide hydrolase 2 (Rattus norvegicus, UniProt P80299); experiment: Inhibition of rat soluble epoxide hydrolase in cell free system
T2 sequence (P80299 whole entry): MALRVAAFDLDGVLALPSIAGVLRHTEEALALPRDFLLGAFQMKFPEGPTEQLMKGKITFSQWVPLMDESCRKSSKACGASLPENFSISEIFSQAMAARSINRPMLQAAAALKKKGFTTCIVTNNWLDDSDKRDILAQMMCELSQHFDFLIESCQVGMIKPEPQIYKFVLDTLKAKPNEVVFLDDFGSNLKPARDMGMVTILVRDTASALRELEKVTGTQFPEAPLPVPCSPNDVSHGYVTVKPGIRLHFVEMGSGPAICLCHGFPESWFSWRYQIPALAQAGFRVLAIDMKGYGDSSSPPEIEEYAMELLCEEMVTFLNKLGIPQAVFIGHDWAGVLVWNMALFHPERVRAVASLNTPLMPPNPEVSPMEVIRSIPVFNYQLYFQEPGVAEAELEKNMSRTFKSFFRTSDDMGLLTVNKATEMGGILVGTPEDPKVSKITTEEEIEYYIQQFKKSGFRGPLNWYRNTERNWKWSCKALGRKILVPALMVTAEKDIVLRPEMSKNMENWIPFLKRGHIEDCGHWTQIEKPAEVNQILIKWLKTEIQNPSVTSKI

[6] = molecular target: T1, Bifunctional epoxide hydrolase 2; experiment: Inhibition of soluble epoxide hydrolase in human HepG2 cells after 30 mins; format: cell-based
[7] = Aqueous solubility of the compound at pH 7.4; format: physicochemical
[8] = test system: HepG2; experiment: Cytotoxicity against human HepG2 cells up to 100 uM; format: cell-based
[9] = molecular target: T3, Cytochrome P450 1A2 (Homo sapiens, UniProt P05177); experiment: Inhibition of CYP1A2; format: ADME
T3 sequence (P05177 whole entry): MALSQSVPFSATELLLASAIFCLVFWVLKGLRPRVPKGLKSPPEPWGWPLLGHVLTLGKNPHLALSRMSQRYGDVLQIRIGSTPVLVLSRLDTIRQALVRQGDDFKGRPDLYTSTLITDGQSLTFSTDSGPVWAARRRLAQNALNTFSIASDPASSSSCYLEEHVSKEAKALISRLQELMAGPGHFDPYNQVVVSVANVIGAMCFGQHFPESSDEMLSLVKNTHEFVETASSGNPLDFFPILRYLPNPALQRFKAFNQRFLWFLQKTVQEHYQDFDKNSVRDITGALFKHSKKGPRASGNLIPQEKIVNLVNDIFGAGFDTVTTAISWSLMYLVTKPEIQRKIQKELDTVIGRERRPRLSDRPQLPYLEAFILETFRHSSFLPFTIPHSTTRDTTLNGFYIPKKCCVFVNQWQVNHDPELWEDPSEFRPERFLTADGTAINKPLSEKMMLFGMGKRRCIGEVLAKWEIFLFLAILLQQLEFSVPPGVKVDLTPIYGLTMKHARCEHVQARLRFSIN

| SMILES | CL [1] [µL/min/mg] | CL [2] [µL/min/mg] | pIC50 [3] | pIC50 [4] | pIC50 [5] | pIC50 [6] | solubility [7] [µg/mL] | Activity [8] | pIC50 [9] |
| --- | --- | --- | --- | --- | --- | --- | --- | --- | --- |
| COc1cccc2c1CC(C(=O)N[C@H]1C[C@@H]1c1ccccc1)CC2 (mixture of isomers) | > 100 | > 100 | > 5.00 | 8.19 | 8.52 | 8.33 | < 1 |  |  |
| CC(C)c1noc(C2CCN(C(=O)N[C@H]3C[C@@H]3c3ccccc3)CC2)n1 (racemic) |  |  |  |  | 7.89 |  |  | Non-toxic |  |
| O=C(N[C@H]1C[C@@H]1c1ccccc1)c1ccc2nonc2c1 (racemic) |  |  | > 5.00 | 7.21 | 6.62 |  | < 1 |  |  |
| Cc1nc2cc(NC(=O)N[C@H]3C[C@@H]3c3ccccc3)ccc2o1 (racemic) | > 100 | > 100 |  | 7.40 | 7.70 | 7.09 | < 1 |  |  |
| CN(C)c1ccc(CNC(=O)N[C@H]2C[C@@H]2c2ccccc2)cc1 (racemic) |  | > 100 | > 5.00 | 7.52 |  |  |  |  | > 5.00 |
| O=C(NC1CCN(c2ccccc2)CC1)N[C@H]1C[C@@H]1c1ccccc1 (racemic) |  | > 100 |  | 8.64 | 8.77 | 8.10 | < 1 |  |  |
